{"source": "patent US20240398822A1", "about": "“METHODS AND COMPOSITIONS FOR TREATING AND MANAGING ALZHEIMER'S DISEASE” (Pharmatrophix, Inc., priority 2021, published 2024)", "key": {"[1]": {"assay": "Aqueous solubility of the drug substance", "format": "physicochemical", "conditions": "water", "experimental": "Preparation of the clinical dosage form consists of a dry fill of the drug substance into gelatin capsules with no excipients. For the Phase II study, capsules with the salt of Formula (II)(200 mg or 400 mg, free base weight) are machine-filled and packaged in blister strips with aluminum foil backing, which are stored in cardboard boxes. Matching placebo capsules are also available in the same packaging."}, "[2]": {"assay": "Stability study of capsules filled with 200 mg in blister strips", "format": "physicochemical", "conditions": "200 mg (free base weight) capsules in PVC-PE-PVdC/Alu, ambient 15-25° C./20-60% RH"}, "SYT1": {"test_system": "SYT1", "assay": "Phase IIa CSF pre-synaptic biomarker SYT1", "format": "in vivo, human", "from_the_text": "(§1) CSF samples were obtained at screening Visit and final Visit via lumbar puncture to determine levels of tau, p-tau, Aβ40, Aβ42 and AChE activity as an initial set of CSF biomarkers. Aliquots of CSF were made available for emerging CSF biomarker methods such as measurement of additional biomarkers including neurofilaments light chain, neurogranin, SNAP-25, synaptotagmin, YKL-40, TREM2, tau oligomers and for measurement of drug level in selected patients based on the time period between last dose of drug and CSF sampling (FIG. 25 and FIG. 58).\nBaseline CSF samples are obtained prior to administration via lumbar puncture. These samples are used to determine levels of tau, p-tau, Aβ40, Aβ42, AChE, neurofilament light chain, SNAP-25, synaptotagmin-1, neurogranin, sTREM, and YKL-40. Aliquots of CSF are also made available for emerging CSF biomarker methods such as measurement of tau oligomers and for measurement of drug level in selected patients based on time period between last dose of the salt of Formula (II) and CSF sampling. […] Many of these biomarkers can also be measured in blood or plasma. The change in values over the time period from pre-treatment to post-treatment are of particular importance. […]"}, "neurogranin": {"test_system": "neurogranin", "assay": "Phase IIa CSF post-synaptic biomarker neurogranin (NG-36)", "format": "in vivo, human", "from_the_text": "as §1\nBaseline CSF samples are obtained prior to administration via lumbar puncture. These samples are used to determine levels of tau, p-tau, Aβ40, Aβ42, AChE, neurofilament light chain, SNAP-25, synaptotagmin-1, neurogranin, sTREM, and YKL-40. Aliquots of CSF are also made available for emerging CSF biomarker methods such as measurement of tau oligomers and for measurement of drug level in selected patients based on time period between last dose of the salt of Formula (II) and CSF sampling. […] Many of these biomarkers can also be measured in blood or plasma. The change in values over the time period from pre-treatment to post-treatment are of particular importance. […] Absolute levels at single time points of neurofilament light chain, SNAP-25, synaptotagmin-1, neurogranin, sTREM, and YKL-40 in CSF or blood or plasma are of less value given differences in assay techniques and wide variation in absolute levels within normal subjects and within and across AD subjects. In contrast, absolute levels of Aβ42 and 40 at baseline are useful biomarkers indicating the presence of amyloid pathology as low levels of Aβ42 and 40 at a given time point are consistent with amyloid pathology."}, "[3]": {"test_system": "patients with mild to moderate Alzheimer's disease", "assay": "Phase IIa structural MRI (regions of interest and voxel-based whole brain analysis)", "format": "in vivo, human", "experimental": "Volumetric MRI is conduction at the first and final visits. Volumetric analyses of the whole brain, hippocampus and other regions of interest are conducted. Measures of regional volumes as determined by MRI are regarded as standard measures of brain degeneration that are known to occur in AD. Volumes of the lateral ventricles are also assessed. Increasing ventricular volume is a marker for a diffuse increase in brain atrophy. […] The following Regions of interest were investigated in the ITT population: MRI Volume of the lateral ventricles in mm3—longitudinal stream change, MRI Average volume of the hippocampus in mm3—longitudinal stream change, MRI Average Volume of the entorhinal cortex in mm3—longitudinal stream change, MRI Total brain volume in mm3 change. Baseline and final Visit MRI scan were used to measure interval changes in volumes. Various cortical regions such as the Cingulate cortex were also assessed. […] The identified brain regions are similar in distribution to those having been previously identified to be particularly vulnerable to degeneration in AD.\nFor this analysis, the drug treatment group contains subject treated with either 200 or 400 mg doses. […] FIGS. 46A-46C show group x time interaction patterns using T1-weighted structural MRI. Contrast estimate plots show the magnitude and direction of the interaction effects observed in the flexible factorial GLM. […] Therefore, if the actual observed ratio of t-values is close to equivalent in the input map at a given p and k threshold, the MCS ratio and p-value will tend to support the null hypothesis of no drug effect. […] Increased thickness is similar to increased volume and means less degeneration. Here increased gyrification means increased atrophy."}, "[4]": {"test_system": "patients with mild to moderate Alzheimer's disease", "assay": "Phase IIa brain glucose metabolism (18F-FDG-PET)", "format": "in vivo, human", "conditions": "for FDG-PET voxel (MCS) analysis, dose comparison: 400 mg versus 200 mg versus placebo", "experimental": "The specific ^18F FDG-PET scan for early detection of AD is conducted at the first and final visits. Quantitative and qualitative estimates of the cerebral glucose rate may be done by using FDG-PET as evident metabolic reduction is already present in patients at early stages of Alzheimer's disease. ^18F FDG-PET scanning is an imaging biomarker for synaptic function. Analyses include anatomical, statistical or voxel-based regions of interest.\nFDG-PET using statistical ROI measures derived from ADNI as described in the Chen et al. paper.\nAreas showing less decline are highlighted in yellow. It is notable that these areas are relevant to areas that degeneration in AD. […] This method makes possible analysis of FDG-PET signal in a common three-dimensional sampling space with the MRI analysis for each subject thereby enhancing accuracy of FDG-PET analysis and allowing the combination of the two modalities for further analyses and the assessment of the spatial relationship between structural and functional degeneration over time. […] For this analysis, the drug treatment group contains subjects treated with either 200 or 400 mg doses.\nFIGS. 56A-56C show FDG PET using group x time interaction patterns. In FIGS. 56A-56C, contrast estimate plots show the magnitude and direction of the interaction effects observed in the flexible factorial GLM.\nTherefore, if the actual observed ratio of t-values is close to equivalent in the input map at a given p and k threshold, the MCS ratio and p-value will tend to support the null hypothesis of no drug effect."}, "[5]": {"test_system": "subjects in SAD and MAD studies", "assay": "Phase 1 SAD/MAD safety", "format": "in vivo", "from_the_text": "The phase 1 study was placebo controlled and double blinded and included 52 subjects in SAD studies and 20 subjects in MAD studies."}, "[6]": {"conditions": "flexible factorial GLM, p<0.05 and cluster size >100"}}, "note": "Entries after “also recorded” stand apart in the source; their conditions may differ."}
{"smiles": "CC[C@H](C)[C@H](N)C(=O)NCCN1CCOCC1", "note": "[LM11A-31-BHS, Tris[(2S,3S)-2-amino-3-methyl-N-(2-morpholinoethyl)pentanamide] tetra(monohydrogensulfate), monosulfate]", "values": [{"measurement": "solubility", "setting": "[1]", "result": "> 30", "unit": "mg/mL"}, {"measurement": "drug stability in capsules", "setting": "[2]", "result": "good drug stability"}, {"measurement": "CSF SYT1 levels, drug dose analysis", "setting": "SYT1; 200 and 400 mg doses", "result": "only nominal reductions below baseline at both doses"}, {"measurement": "CSF SYT1 change in the drug group", "setting": "SYT1; combined drug group, 6 months, p=0.06", "result": "trend for a decrease"}, {"measurement": "CSF neurogranin-36, drug dose analysis", "setting": "neurogranin; 200 mg dose versus placebo", "result": "significant lowering of NG-36"}, {"measurement": "CSF neurogranin-36, drug dose analysis", "setting": "neurogranin; 400 mg dose versus placebo", "result": "trend for reduction"}, {"measurement": "CSF neurogranin levels in the drug group", "setting": "neurogranin; combined drug group, 6 months, p=0.02", "result": "significant decrease"}, {"measurement": "cortical thickness and gyrification", "setting": "[3]; anterior cingulate region area 33 prime", "result": "drug effect on improving cortical thickness or decreasing gyrification"}, {"measurement": "hippocampal (HC) volume, sMRI", "setting": "[3]; combined drug group, 6-month period, p=0.006", "result": "significant increase in HC volume"}, {"measurement": "volume of the dentate gyrus", "setting": "[3]; drug group, humans", "result": "promotes increased volume of the dentate gyrus; also recorded: significant increase in the volume of the dentate gyrus"}, {"measurement": "voxel-wise T1-weighted structural MRI, loss of volume, dose analysis", "setting": "[3]; [6]", "result": "significant effect at both the 200 and 400 mg doses in slowing loss of volume"}, {"measurement": "volume loss in voxel-based whole brain MRI, drug versus placebo", "setting": "[3]; treatment period", "result": "slow volume loss in brain regions known to be particularly vulnerable to degeneration in AD"}, {"measurement": "voxel-wise structural MRI volume loss, age analysis", "setting": "[3]; younger <72 years, older >=72 years", "result": "significant drug effect in both age groups"}, {"measurement": "FDG-PET voxel (MCS) analysis, dose comparison", "setting": "[4]", "result": "400 mg effect is significant and significantly greater than the 200 mg effect"}, {"measurement": "FDG-PET voxel (MCS) analysis, dose comparison", "setting": "[4]; listed as LM11A-31", "result": "The effect at the 400 mg dose is higher than that at the 200 mg dose"}, {"measurement": "FDG-PET statistical ROI decline, drug versus placebo", "setting": "[4]; combined drug group, 6 month period", "result": "trend to less decline"}, {"measurement": "cerebral glucose rate compared to placebo or no treatment", "setting": "[4]; daily treatment", "result": "reduction in the extent of ongoing decrease in cerebral glucose rate"}, {"measurement": "FDG-PET loss of SUVR signal, dose analysis", "setting": "[4]; [6]", "result": "significant effect at both the 200 and 400 mg doses in slowing loss of SUVR signal"}, {"measurement": "FDG-PET sROI, dose comparison", "setting": "[4]; not statistically significant", "result": "greater trend is observed at 400 compared to the 200 mg dose"}, {"measurement": "deaths, SAEs, severe TEAEs, discontinuations because of an AE", "setting": "[5]; in vivo", "result": "no deaths, SAEs, severe TEAEs, and no subjects were discontinued because of an AE"}, {"measurement": "intensity of TEAEs", "setting": "[5]; in vivo", "result": "All TEAEs were mild"}, {"measurement": "laboratory results, physical examination, vital signs, ECG, C-SSRS", "setting": "[5]; in vivo", "result": "No clinically significant laboratory results, physical examination findings, vital signs, ECG findings, or positive scores"}, {"measurement": "subjects who experienced TEAEs", "setting": "[5]; multiple doses", "result": "7 of 16"}, {"measurement": "total TEAEs", "setting": "[5]; multiple doses", "result": 8}, {"measurement": "TEAEs considered unrelated to study drug", "setting": "[5]; multiple doses, remaining 2 possibly (flatulence) or remotely (nocturia) related", "result": 6}, {"measurement": "subjects who experienced a TEAE", "setting": "[5]; single dose", "result": "1 of 40"}, {"measurement": "total TEAEs", "setting": "[5]; single dose, postural dizziness, possibly related", "result": 1}, {"measurement": "safety and tolerability", "setting": "[5]; single doses of 100, 300, 600 and 900 mg free base, multiple doses of 300 BID and 600 mg free base QD", "result": "generally safe and well tolerated"}]}
